The test system of one data set is human PBMC (Th17 cells). The data set can be described thus: Th17 differentiation and IL-17 secretion in human PBMC. The following applies: IL-17 ELISA after 48 hours; for Emax: maximum activation rate. The format is cell-based. The procedure: Test procedure: PBMC cells were first thawed and plated, and then stimulated with stimulating factors (anti-hCD28: 5 μg/mL; rhTGF-β1: 5 ng/mL; rhIL-6: 20 ng/mL; rhIL-23: 10 ng/Ml) to differentiate to Th17, while adding different concentrations of compounds. All test compounds were serially diluted at 3-fold dilution with DMSO, with 8 serial dilutions starting from the maximum concentration 3 μM. The supermatants were collected after 48 hours for IL-17 ELISA detection, and compared with the solvent group, to determine the activation rate of the compounds on Th17 cells to secrete IL-17. EC50 values were fitted with Graphad8.0, and the TOP values fitted by the software was Emax %.
In general terms: ELISA stands for enzyme-linked immunosorbent assay.

For data set [1], the target named is T1, RORγt (RORγ-LBD chimeric receptor) (Homo sapiens, UniProt P51449).
T1 construct: host or cells: HEK293T
T1 sequence (P51449 269-508 limits assumed): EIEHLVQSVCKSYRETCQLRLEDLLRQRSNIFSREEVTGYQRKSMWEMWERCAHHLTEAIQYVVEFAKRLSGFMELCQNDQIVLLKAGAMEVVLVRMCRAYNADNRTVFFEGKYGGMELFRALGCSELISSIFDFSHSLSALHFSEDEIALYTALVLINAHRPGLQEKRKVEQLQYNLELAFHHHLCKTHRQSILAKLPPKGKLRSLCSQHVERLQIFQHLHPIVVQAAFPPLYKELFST
Description: Luciferase reporter gene assay of RORγt agonistic activity in HEK293T cells. The format is cell-based. More on the design: Emax: dose or concentration left out as unconfirmed. The following applies: for EC50: HEK293T, GAL4 luciferase reporter, read-out: EC50; for Emax: HEK-293T. The gist of the method: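 EC50 derived from % activity (relative to positive control and vehicle) versus log concentration, using luciferase luminescence in transfected HEK293T cells. The cells carried a RORγ-LBD/GAL4 chimera plus a GAL4-promoter reporter; compounds were 3-fold serially diluted, 10 points from a 10 mM DMSO stock.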
(In general: In a reporter assay the amount or activity of a reporter protein is the signal.)

For a further data set, the target named is T2, GST-RORγ LBD (263-509) (Homo sapiens, UniProt P51449).
T2 construct: GST-RORγ LBD ((263-509) (produced at ChemPartner))
T2 sequence (P51449 263-509): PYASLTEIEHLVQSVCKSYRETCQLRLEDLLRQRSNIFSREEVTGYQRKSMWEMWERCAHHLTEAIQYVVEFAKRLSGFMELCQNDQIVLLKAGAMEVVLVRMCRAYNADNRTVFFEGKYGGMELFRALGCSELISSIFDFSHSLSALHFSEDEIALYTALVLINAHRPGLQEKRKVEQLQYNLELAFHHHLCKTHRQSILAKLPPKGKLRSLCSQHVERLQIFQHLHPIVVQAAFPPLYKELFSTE
Description: TR-FRET assay of agonistic activity on RORγ receptor. The format is biochemical. The following applies: for EC50: TR-FRET, GST-RORγ LBD with Biotin-SRC1. The gist of the method:
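GST-RORγ LBD (75 nM solution) mixed 1:1 with Biotin-SRC1 (4 nM solution), then with Eu anti-GST and SA-APC; compounds in 10-point 3-fold series from 10 mM stock, duplicate.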
On the technique in general: In TR-FRET formats the signal depends on donor and acceptor labels being close together.

Data set [2] in a line: Metabolic stability in mouse liver microsomes. The format is in vitro ADME, CD-1 mice. Conditions: for half-life: CD-1; for microsomal CLint: CD-1, 0.5 mg protein/mL. The method in brief: (§1)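 Compound incubated at 37 °C with 0.5 mg protein/mL liver microsomes plus cofactors in PBS, sampled at 0–60 min, quenched with cold acetonitrile and quantified by HPLC-MS/MS (n=3). Half-life and Clint (μL/min/mg) come from the slope of ln(% remaining) versus time.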

Data set [3] can be described thus: Metabolic stability in human liver microsomes. Format: in vitro ADME. The following applies: for microsomal CLint: 0.5 mg protein/mL. The gist of the method: as §1
Setting [4] is: maximum activation rate, TOP of fitted curve.

Each structure is given as a SMILES string.

The term EC50 denotes the concentration at which the effect is half-maximal. Broadly, the Emax is the size of the effect at its maximum, as opposed to the concentration needed. The term half-life denotes the time needed for the level to fall by half in the phase considered. The microsomal CLint is the rate of metabolic loss divided by the concentration. As to `CCS(=O)(=O)c1ccc(C(CO)C(=O)Nc2cc(Cl)c(-c3ccc(S(=O)(=O)C4CC4)cc3)c(Cl)c2)cc1` (single isomer, unassigned) [Example 38, (S)—N-(2,6-dichloro-4′-(cyclopropylsulfonyl)-[1,1′-biphenyl]-4-yl)-2-(4-(ethylsulfonyl)phenyl)-3-hydroxypropionamide or (R)—N-(2,6-dichloro-4′-(cyclopropylsulfonyl)-[1,1′-biphenyl]-4-yl)-2-(4-(ethylsulfonyl)phenyl)-3-hydroxypropionamide], the EC50 came to 22.8 nM in the data set with human PBMC (Th17 cells), 124 nM in data set [1] and 5.9 nM at GST-RORγ LBD (263-509). The Emax in the data set with human PBMC (Th17 cells) came to 179%; in data set [1] it was 103%; on GST-RORγ LBD (263-509) (setting [4]), 190%. The “% Remaining (T = 60 min)” value in data set [2] amounted to 70.7%; in data set [3], 77.2%. The half-life in data set [2] is 108 min; in data set [3] it was over 145 min. For the same compound, the microsomal CLint in data set [2] was 12.9 µL/min/mg; in data set [3] it was under 9.6 µL/min/mg.
In the data set on human PBMC (Th17 cells), `CCS(=O)(=O)c1ccc(C(COC)C(=O)Nc2cc(Cl)c(-c3ccc(S(=O)(=O)C4CC4)cc3)c(Cl)c2)cc1` (single isomer, unassigned) [Example 40, (S)—N-(2,6-dichloro-4′-(cyclopropylsulfonyl)-[1,1′-biphenyl]-4-yl)-2-(4-(ethylsulfonyl)phenyl)-3-methoxypropionamide or (R)—N-(2,6-dichloro-4′-(cyclopropylsulfonyl)-[1,1′-biphenyl]-4-yl)-2-(4-(ethylsulfonyl)phenyl)-3-methoxypropionamide] gave an EC50 of 25.8 nM and an Emax of 224%. In data set [1], the EC50 is 93 nM and the maximal effect (Emax) worked out at 77.5%. Besides, the EC50 at GST-RORγ LBD (263-509) was determined as 9.9 nM. Also, the Emax % on GST-RORγ LBD (263-509) (setting [4]) is 199.3%. Also, in data set [2], the “% Remaining (T = 60 min)” value turned out to be 71.8%, the half-life stood at 117 min and the intrinsic clearance (microsomal CLint) worked out at 11.8 µL/min/mg. Besides, in data set [3], the half-life turned out to be 144 min, the intrinsic clearance (microsomal CLint) was 9.6 µL/min/mg and the “% Remaining (T = 60 min)” value was determined as 71.1%.
Regarding `CCS(=O)(=O)c1ccc(CC(=O)Nc2cc(Cl)c(-c3ccc(S(=O)(=O)C4CC4)cc3)c(Cl)c2)cc1` [Example 6], the half-maximal effective concentration (EC50) turned out to be 49.2 nM in the data set on human PBMC (Th17 cells), 13 nM in data set [1] and 3.7 nM at GST-RORγ LBD (263-509). Also, the Emax with human PBMC (Th17 cells) came out at 254%; in data set [1], 42.1%; on GST-RORγ LBD (263-509) (setting [4]), 171%. Besides, the “% Remaining (T = 60 min)” value turned out to be 78.60% in data set [2] and 82% in data set [3]. Further, the half-life in data set [2] and in data set [3] was over 145 min in each case. Also, the intrinsic metabolic clearance (microsomal CLint) in data set [2] and in data set [3] was under 9.6 µL/min/mg throughout.

The values are drawn from patent US20220402867A1, “SULFO-SUBSTITUTED BIARYL COMPOUND OR SALT THEREOF, PREPARATION METHOD THEREFOR, AND USE THEREOF” (Shanghai Litedd Co., Ltd., priority 2019, published 2022).
